{"source": "ChEMBL document CHEMBL1159360", "about": "“Bioactive asterosaponins from the starfish Luidia quinaria and Psilaster cassiope. Isolation and structure characterization by two-dimensional NMR spectroscopy” (J Nat Prod, 2003)", "key": {"RBL-2H3": {"system": "RBL-2H3", "experiment": "Cytotoxicity against rat RBL2H3 after 24 hrs by MTT assay", "type": "functional, cell-based", "conditions": "RBL-2H3, 24 h"}, "C6": {"system": "C6", "experiment": "Cytotoxicity against rat C6 after 24 hrs by MTT assay", "type": "functional, cell-based"}}, "note": "Activity calls are given as the source filed them. The calls are words filed in the database; no cut-off is given here."}
{"smiles": "CC(C)CC(=O)C[C@](C)(O)[C@H]1CC[C@H]2[C@@H]3C[C@H](O[C@@H]4O[C@H](C)[C@@H](O)[C@H](O[C@@H]5O[C@H](CO)[C@@H](O[C@@H]6O[C@H](C)[C@@H](O)[C@H](O)[C@H]6O[C@@H]6O[C@H](C)[C@H](O)[C@H](O)[C@H]6O)[C@H](O)[C@H]5O[C@@H]5O[C@H](C)[C@@H](O)[C@H](O)[C@H]5O)[C@H]4O)[C@H]4C[C@@H](OS(=O)(=O)[O-])CC[C@]4(C)C3=CC[C@@]21C.[Na+]", "note": "[LUIDIAQUINOSIDE]", "values": [{"measurement": "IC50", "setting": "RBL-2H3", "value": 31.3, "unit": "µg/mL"}, {"measurement": "Activity", "setting": "C6", "value": "inactive"}]}
{"smiles": "CC(C)CC(=O)C[C@](C)(O)[C@H]1CC[C@H]2[C@@H]3C[C@H](O[C@@H]4O[C@H](C)[C@@H](O)[C@H](O[C@@H]5OC[C@@H](O[C@@H]6O[C@H](CO)[C@H](O)[C@H](O)[C@H]6O[C@@H]6O[C@H](C)[C@H](O)[C@H](O[C@@H]7O[C@@H](CO)[C@H](O)[C@H]7O)[C@H]6O)[C@H](O)[C@H]5O[C@@H]5O[C@H](C)[C@@H](O)[C@H](O)[C@H]5O)[C@H]4O)[C@H]4C[C@@H](OS(=O)(=O)[O-])CC[C@]4(C)C3=CC[C@@]21C.[Na+]", "note": "[PSILASTEROSIDE]", "values": [{"measurement": "IC50", "setting": "RBL-2H3", "value": 5.4, "unit": "µg/mL"}, {"measurement": "Activity", "setting": "C6", "value": "inactive"}]}
